# Data as given in patent US11746100B2 (GLOBAL BLOOD THERAPEUTICS, INC., priority 2020, dated 2023).
# Molecular target: T1, human ferroportin (Homo sapiens, UniProt Q9NP59)
# T1 construct: luciferase reporter (read with the Nano-Glo Luciferase Assay System); expressed in transfected cells; host or cells: CHO cells, stably transfected, expression induced with doxycycline
# T1 sequence (Q9NP59 1-571): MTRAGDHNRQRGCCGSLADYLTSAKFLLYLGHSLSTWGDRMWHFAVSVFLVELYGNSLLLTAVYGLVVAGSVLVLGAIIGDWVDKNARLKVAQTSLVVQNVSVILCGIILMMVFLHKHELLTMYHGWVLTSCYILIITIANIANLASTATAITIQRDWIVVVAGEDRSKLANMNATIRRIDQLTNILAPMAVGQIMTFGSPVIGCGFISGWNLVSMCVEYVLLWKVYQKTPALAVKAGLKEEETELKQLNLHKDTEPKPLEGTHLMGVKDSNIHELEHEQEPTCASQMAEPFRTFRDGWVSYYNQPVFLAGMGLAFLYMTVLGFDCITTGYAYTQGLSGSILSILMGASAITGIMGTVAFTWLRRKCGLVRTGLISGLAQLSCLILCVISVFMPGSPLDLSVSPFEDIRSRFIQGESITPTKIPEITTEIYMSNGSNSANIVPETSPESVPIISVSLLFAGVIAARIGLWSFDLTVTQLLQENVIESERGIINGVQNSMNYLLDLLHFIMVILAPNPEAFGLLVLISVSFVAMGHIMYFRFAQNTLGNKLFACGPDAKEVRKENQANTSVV
# Assay: Biological in-vitro ferroportin internalization assay (luciferase reporter)
# Type: cell-based
# Details: average pEC50; stably-transfected CHO cell line expressing human ferroportin tagged to a luciferase reporter; 6 h incubation with test compound
# Protocol: The protocol for this assay is generally as described in WO2018/128828, incorporated herein by reference in its entirety. Functional internalization of ferroportin protein was measured using a stably-transfected CHO cell line expressing the human ferroportin tagged to a luciferase reporter. Cells were plated for 24 h in the presence of ferric ammonium citrate (FAC). Ferroportin protein expression was induced with doxycycline for 24 h. The next day, the compounds were added. Test compounds were dissolved in DMSO. Cells were incubated with the test compounds for 6 h, and subsequently luciferase activity was measured using the Nano-Glo Luciferase Assay System and Glomax (Promega, Madison, Wis.). The average pEC50 was determined for the test compounds.
row,SMILES,pEC50
1,"CN1CCC[C@@H](Oc2ccnc(-c3nc4c(c(N(C)CC(=O)NC(C)(C)C)n3)CCC4)c2)C1 [Compound 489, N-tert-butyl-2-{methyl[2-(4-{[(3R)-1-methylpiperidin-3-yl]oxy}pyridin-2-yl)-5H,6H,7H-cyclopenta[d]pyrimidin-4-yl]amino}acetamide]",8.2
2,"Cc1ccnc(-c2nc3c(c(N4CCCCCC4)n2)CCC3)c1 [Compound 14, 1-[2-(4-methylpyridin-2-yl)-5H,6H,7H-cyclopenta[d]pyrimidin-4-yl]azepane]",6.8
3,"CSCC[C@H](C(=O)NC(C)(C)C)N(C)c1nc(-c2ccccn2)nc2c1CCC2 [Compound 116, (2R)—N-tert-butyl-2-{methyl[2-(pyridin-2-yl)-5H,6H,7H-cyclopenta[d]pyrimidin-4-yl]amino}-4-(methylsulfanyl)butanamide]",7.4
4,"CN(CC(=O)NC(C)(C)C)c1nc(-c2cc(OCC3CC3)ccn2)nc2c1CCC2 [Compound 159, N-tert-butyl-2-({2-[4-(cyclopropylmethoxy)pyridin-2-yl]-5H,6H,7H-cyclopenta[d]pyrimidin-4-yl}(methyl)amino)acetamide]",8.0
5,"CN(CC(=O)Nc1ccccc1)c1nc(-c2ccccn2)nc2c1CCC2 [Compound 77, 2-{methyl[2-(pyridin-2-yl)-5H,6H,7H-cyclopenta[d]pyrimidin-4-yl]amino}-N-phenylacetamide]",7
6,"C[C@H](C(=O)NC(C)(C)C)N(C)c1nc(-c2ccccn2)nc2c1CCC2 [Compound 51, (2R)—N-tert-butyl-2-{methyl[2-(pyridin-2-yl)-5H,6H,7H-cyclopenta[d]pyrimidin-4-yl]amino}propanamide]",7.5
7,"CC(C)[C@@H](C(=O)NC(C)(C)C)N(C)c1nc(-c2ccccn2)nc2c1CCC2 [Compound 115, (2S)—N-tert-butyl-3-methyl-2-{methyl[2-(pyridin-2-yl)-5H,6H,7H-cyclopenta[d]pyrimidin-4-yl]amino}butanamide]",7.1
8,"CN(C)c1ccnc(-c2nc3c(c(N(C)CC(=O)NC(C)(C)C)n2)CCC3)c1 [Compound 102, N-tert-butyl-2-({2-[4-(dimethylamino)pyridin-2-yl]-5H,6H,7H-cyclopenta[d]pyrimidin-4-yl}(methyl)amino)acetamide]",7.1
9,"CN(CC(=O)NC(C)(C)C)c1nc(-c2cc(O[C@@H]3CCN(CCF)C3)ccn2)nc2c1CCC2 [Compound 497, N-tert-butyl-2-{[2-(4-{[(3R)-1-(2-fluoroethyl)pyrrolidin-3-yl]oxy}pyridin-2-yl)-5H,6H,7H-cyclopenta[d]pyrimidin-4-yl](methyl)amino}acetamide]",8.2
10,"C[C@H](C(=O)Nc1ccnnc1)N(C)c1nc(-c2cc3ccccc3cn2)nc2c1CCC2 [Compound 273, (2R)-2-{[2-(isoquinolin-3-yl)-5H,6H,7H-cyclopenta[d]pyrimidin-4-yl](methyl)amino}-N-(pyridazin-4-yl)propanamide]",7.8
11,"CN(CC(=O)NC(C)(C)C)c1nc(-c2cc(OC[C@@H](O)CO)ccn2)nc2c1CCC2 [Compound 451, N-tert-butyl-2-[(2-{4-[(2S)-2,3-dihydroxypropoxy]pyridin-2-yl}-5H,6H,7H-cyclopenta[d]pyrimidin-4-yl)(methyl)amino]acetamide]",7.8
12,"CC(C(=O)NC1CCCCC1)N(C)c1nc(-c2ccccn2)nc2c1CCC2 (centres unmarked) [Compound 91, N-cyclohexyl-2-{methyl[2-(pyridin-2-yl)-5H,6H,7H-cyclopenta[d]pyrimidin-4-yl]amino}propanamide]",7.3
13,"CN(CC(=O)NCc1ccccc1)c1nc(-c2ccccn2)nc2c1CCC2 [Compound 27, N-benzyl-2-{methyl[2-(pyridin-2-yl)-5H,6H,7H-cyclopenta[d]pyrimidin-4-yl]amino}acetamide]",6.8
14,"CN(CC(=O)NC(C)(C)C)c1nc(-c2cc3c(cn2)OCO3)nc2c1CCC2 [Compound 226, N-tert-butyl-2-[(2-{2H-[1,3]dioxolo[4,5-c]pyridin-6-yl}-5H,6H,7H-cyclopenta[d]pyrimidin-4-yl)(methyl)amino]acetamide]",7.1
15,"COc1ccnc(-c2nc3c(c(N(C)CC(=O)NC4COC4)n2)CCC3)c1 [Compound 373, 2-{[2-(4-methoxypyridin-2-yl)-5H,6H,7H-cyclopenta[d]pyrimidin-4-yl](methyl)amino}-N-(oxetan-3-yl)acetamide]",7.3
16,"CN(CC(=O)NC12CC(C1)C2)c1nc(-c2cc(OCCO)ccn2)nc2c1CCC2 [Compound 349, N-{bicyclo[1.1.1]pentan-1-yl}-2-({2-[4-(2-hydroxyethoxy)pyridin-2-yl]-5H,6H,7H-cyclopenta[d]pyrimidin-4-yl}(methyl)amino)acetamide]",7.8
17,"COc1ccc(NC(=O)CN(C)c2nc(-c3cc(OC4COC4)ccn3)nc3c2CCC3)cc1 [Compound 327, N-(4-methoxyphenyl)-2-[methyl({2-[4-(oxetan-3-yloxy)pyridin-2-yl]-5H,6H,7H-cyclopenta[d]pyrimidin-4-yl})amino]acetamide]",7.9
18,"C[C@@H](CO)Oc1ccnc(-c2nc3c(c(N(C)CC(=O)NC(C)(C)C)n2)CCC3)c1 [Compound 385, N-tert-butyl-2-{[2-(4-{[(2S)-1-hydroxypropan-2-yl]oxy}pyridin-2-yl)-5H,6H,7H-cyclopenta[d]pyrimidin-4-yl](methyl)amino}acetamide]",8.2
19,"CN(CC(=O)NC(C)(C)C)c1nc(-c2ccc(CCO)cn2)nc2c1CCC2 [Compound 43, N-tert-butyl-2-({2-[5-(2-hydroxyethyl)pyridin-2-yl]-5H,6H,7H-cyclopenta[d]pyrimidin-4-yl}(methyl)amino)acetamide]",7
20,"Cc1ccnc(-c2nc3c(c(N(C)CC(=O)NC4CCCC4)n2)CCC3)c1 [Compound 64, N-cyclopentyl-2-{methyl[2-(4-methylpyridin-2-yl)-5H,6H,7H-cyclopenta[d]pyrimidin-4-yl]amino}acetamide]",7.8
21,"CN(CC(=O)N1CCCCC1)c1nc(-c2cc3ccccc3cn2)nc2c1CCC2 [Compound 255, 2-{[2-(isoquinolin-3-yl)-5H,6H,7H-cyclopenta[d]pyrimidin-4-yl](methyl)amino}-1-(piperidin-1-yl)ethan-1-one]",6.9
22,"CN(CC(=O)NC12CC(C1)C2)c1nc(-c2cc(OC3COC3)ccn2)nc2c1CCC2 [Compound 340, N-{bicyclo[1.1.1]pentan-1-yl}-2-[methyl({2-[4-(oxetan-3-yloxy)pyridin-2-yl]-5H,6H,7H-cyclopenta[d]pyrimidin-4-yl})amino]acetamide]",7.7
23,"COCC(C)(C)NC(=O)CN(C)c1nc(-c2cc(OC)ccn2)nc2c1CCC2 [Compound 139, N-(1-methoxy-2-methylpropan-2-yl)-2-{[2-(4-methoxypyridin-2-yl)-5H,6H,7H-cyclopenta[d]pyrimidin-4-yl](methyl)amino}acetamide]",7.5
24,"C[C@@H](O)COc1ccnc(-c2nc3c(c(N(C)CC(=O)NC4(C)CCC4)n2)CCC3)c1 [Compound 377, 2-[(2-{4-[(2R)-2-hydroxypropoxy]pyridin-2-yl}-5H,6H,7H-cyclopenta[d]pyrimidin-4-yl)(methyl)amino]-N-(1-methylcyclobutyl)acetamide]",7.8
25,"Cc1ccc(NC(=O)CN(C)c2nc(-c3cc4cn[nH]c4cn3)nc3c2CCC3)cn1 [Compound 267, 2-[methyl(2-{1H-pyrazolo[3,4-c]pyridin-5-yl}-5H,6H,7H-cyclopenta[d]pyrimidin-4-yl)amino]-N-(6-methylpyridin-3-yl)acetamide]",7.1
26,"CCC(C)(C)NC(=O)CN(C)c1nc(-c2cc(OCCO)ccn2)nc2c1CCC2 [Compound 367, 2-({2-[4-(2-hydroxyethoxy)pyridin-2-yl]-5H,6H,7H-cyclopenta[d]pyrimidin-4-yl}(methyl)amino)-N-(2-methylbutan-2-yl)acetamide]",8
27,"CN(CC(=O)NC(C)(C)C)c1nc(-c2ccccn2)nc2c1CCCC2 [Compound 23, N-tert-butyl-2-{methyl[2-(pyridin-2-yl)-5,6,7,8-tetrahydroquinazolin-4-yl]amino}acetamide]",6.9
28,"CN(CC(=O)N1CCC(F)(F)CC1)c1nc(-c2cc(OCC(C)(C)O)ccn2)nc2c1CCC2 [Compound 391, 1-(4,4-difluoropiperidin-1-yl)-2-({2-[4-(2-hydroxy-2-methylpropoxy)pyridin-2-yl]-5H,6H,7H-cyclopenta[d]pyrimidin-4-yl}(methyl)amino)ethan-1-one]",7.7
29,"CN(CC(=O)NC(C)(C)C)c1nc(-c2cc(OCCO)ccn2)nc2c1C(C)(C)CC2 [Compound 361, N-tert-butyl-2-({2-[4-(2-hydroxyethoxy)pyridin-2-yl]-5,5-dimethyl-5H,6H,7H-cyclopenta[d]pyrimidin-4-yl}(methyl)amino)acetamide]",8.1
